Where “and” joins values, the source holds several entries; their conditions need not be identical. Identical values can stand only once. Like-named read-outs stand apart in the source and are kept apart here. Blank lines part the entries; values can stand above or below the compound they belong to.
Legend:
[1] = system: T. brucei brucei (strain BF427); assay: In vitro parasite growth arrest assay; format: cell-based, Trypanosoma brucei brucei; settings: for EC50: Trypanosoma brucei
[2] = system: T. brucei rhodesiense STIB 900 strain; assay: Anti-parasite efficacy studies in mice; settings: for Cured / Day of euthanasia: mice, oral, 5 days
[3] = 5 mg/kg, 2 doses per day, Exp 1 and Exp 2
[4] = 20 mg/kg, 1 dose per day, Exp 2
[5] = 20 mg/kg, 2 doses per day, Exp 1
[6] = 50 mg/kg, 1 dose per day, Exp 1

EC50 ([1]; read-out: EC50, concentration of compound required to inhibit growth by 50%): 1.7 nM
EC50 ([1]; read-out: EC50 against T. brucei in vitro): 1.2 nM
Compound: N=C(N)c1ccc(OCCCCCOc2ccc(C(=N)N)cc2)cc1 [Pentamidine, reference compound]

Compound: O=C(Nc1ccc(F)c(-c2nc3cc(-c4ccccc4)cnc3[nH]2)c1)N1CCCC1 [Compound 64]
extent of growth inhibition of T. brucei in vitro [1]: complete growth inhibition
lowest oral dose at which infected mice were cured (dosed orally down to) ([2]; T. brucei infected mice): 2.5 mg/kg
Cured ([2]; 1 mg/kg, 2 doses per day, Exp 2): 0 of 5 and 0/5
Cured ([2]; 2.5 mg/kg, 2 doses per day, Exp 2): 2 of 5 and 2/5
Cured ([2]; 5 mg/kg, 1 dose per day, Exp 2): 2 of 5 and 2/5
Cured [2, 3]: all mice were cured and 5/5
Day of euthanasia [2, 3]: 60
Cured [2, 4]: Cures in all mice and 5/5
Day of euthanasia [2, 4]: 60
Cured [2, 5]: Cures in all mice and 5/5
Day of euthanasia [2, 5]: 60
Cured [2, 6]: Cures in all mice and 5/5
Day of euthanasia [2, 6]: 60
Cured ([2]; 50 mg/kg, 2 doses per day, Exp 1): Cures in all mice and 5/5
Day of euthanasia ([2]; 50 mg/kg, 2 doses per day, Exp 1, day 60 = cured): 60

Compound: Nc1ccc(Cl)c(-c2nc3ncccc3o2)c1 [Compound 36]
inhibition of T. brucei growth in vitro ([1]; tested up to 20 μM): no inhibition

Reference: article PMC3962778 (Journal of medicinal chemistry, 2014)
